Test results taken from patent US7399587B2, “Canine CYP1A2 genetic polymorphism” (Astellas Pharma Inc., priority 2003, dated 2008).

Experiment: Pharmacokinetics test in beagles after oral administration of Compound A (plasma, HPLC-FL method)
Assay type: in vivo, beagle
Details: for AUC(0-inf) / Cmax / half-life: plasma, po, 0.3 mg/kg
Experimental: In this example, after oral administration of Compound A, a pharmacokinetics test was carried out, in accordance with the following procedure. In the test, a time course of changes in concentrations of the unreacted compound and metabolites was measured.
Compound A was suspended in 0.5% methyl cellulose solution, and the suspension was orally administered to 10 male beagles (0.3 mg/kg). Blood was collected from each subject after 0.25, 0.5, 1.0, 2.0, 4.0, and 8.0 hours from the administration. Plasma was extracted by liquid-liquid extraction, and then, a time course of changes in concentrations of the unreacted compound and metabolites in plasma was measured according to a simultaneous measurement method (hereinafter referred to as HPLC-FL method) using HPLC and a fluorescence detector.
Conditions in the HPLC-FL method measuring Compound A and metabolites simultaneously are shown in Table 9, and concentration gradients of mobile phases are shown in Table 10.
The beagles for the pharmacokinetics test used in this example were previously selected by carrying out a phenotype analysis. In the pharmacokinetics test, 5 dogs (type I) in which the major metabolite was MM-2, and 5 dogs (type II) in which the major metabolites were MM-1 and MM-5, were used. The time course of changes in concentrations of Compound A and metabolites thereof in plasma are shown in Table 1 (type I) and Table 2 (type II)
As pharmacokinetic parameters, time of maximum observed concentration (Tmax), concentration corresponding to Tmax (Cmax), area under the plasma concentration-time curve from the time of dosing extrapolated to infinity (AUCinf), and terminal half-life (T1/2) were calculated.

[1] = male, beagle, dog, type I (EM) beagles, n = 5, plasma after oral Compound A 0.3 mg/kg
[2] = male, beagle, dog, type II (PM) beagles, n = 5, plasma after oral Compound A 0.3 mg/kg
[3] = unreacted compound in plasma, oral 0.3 mg/kg, type II (PM) vs type I (EM) beagles

- AUC(0-inf) [1]: 2.8 ± 1.6 ng·h/mL
- Cmax [1]: 3.2 ± 1.5 ng/mL
- half-life [1]: 36 ± 12 min
- AUC(0-inf) [2]: 27.2 ± 20.2 ng·h/mL
- Cmax [2]: 24 ± 14.8 ng/mL
- half-life [2]: 48 ± 24 min
- Tmax [1]: 18 min
- AUCinf of type II relative to type I [3]: 9.7 times
- Cmax of type II relative to type I [3]: 7.5 times
Compound: CCn1c(=O)nc(C2CCCCC2)c2ccc(C)nc21 [Compound A, 4-cyclohexyl-1-ethyl-7-methylpyrido[2,3-d]pyrimidin-2(1H)-one]
